The source of these data is patent US20190201541A1, “ANTI-CD22 ANTIBODY-MAYTANSINE CONJUGATES, COMBINATIONS, AND METHODS OF USE THEREOF” (Triphase Accelerator U.S. Corporation, priority 2017, published 2019).

As usually defined, the IC50 is the concentration at which inhibition is half-maximal.

Common to all, as to type: cell-based
Assay [1] concerns Ramos cells engineered to express MDR1 (MDR1+). Put plainly: In vitro cytotoxicity assay on MDR1-expressing cells. Particulars: versus wild-type cells. As to the method: (§1) MDR1 (ABCB1) cDNA was obtained from Sino Biological and cloned into a pEF plasmid with a hygromycin selection marker. An AMAXA Nucleofector™ instrument was used to electroporate Ramos (ATCC CRL-1923) and WSU-DLCL2 (DSMZ ACC 575) cells according to the manufacturer's instructions. After selection with hygromycin (Invitrogen 10687010), the pools were enriched with paclitaxel treatment (25 nM for up to 10 days) to further select cells with functional MDR1. The resulting cells were maintained under hygromycin selection in RPMI (Gibco 21870-092) supplemented with 10% fetal bovine serum (FBS) and 1× GlutaMax (Gibco 35050-079).
(§2) Cell lines were plated in 96-well plates (Costar 3610) at a density of 5×10^4 cells/well in 100 μL of growth media and allowed to rest for 5 h. Serial dilution of test samples was performed in RPMI at 6× the final concentration and 20 μL was added to the cells. After incubation at 37° C. with 5% CO2 for 5 days, viability was measured using a Promega CellTiter 96® AQueous One Solution Cell Proliferation Assay (G3581) according to the manufacturer's instructions. GI50 curves were calculated in GraphPad Prism using the ADC's drug-to-antibody ratio (DAR) value to normalize the dose to the payload concentration.

Assay [2] has as its system WSU-DLCL2 cells engineered to express MDR1 (MDR1+). The assay is described as above. As to the method:
as §1, §2

For assay [3], the system named is Ramos cells. The assay is described as follows: In vitro cytotoxicity, Cell Titer-Glo, 5 d. Particulars: Homo sapiens, 120 h, 5 d incubation, read-out: IC50 against Ramos cells. As to the method:
(§3) The CD22-positive B-cell lymphoma cell lines, Ramos and WSU-DLCL2, were obtained from the ATCC and DSMZ cell banks, respectively. The cells were maintained in RPMI-1640 medium (Cellgro, Manassas, Va.) supplemented with 10% fetal bovine serum (Invitrogen, Grand Island, N.Y.) and Glutamax (Invitrogen). 24 h prior to plating, cells were passaged to ensure log-phase growth. On the day of plating, 5000 cells/well were seeded onto 96-well plates in 90 μL normal growth medium supplemented with […] and 10 µg/mL streptomycin (Cellgro). Cells were treated at various concentrations with 10 μL of diluted analytes, and the plates were incubated at 37° C. in an atmosphere of 5% CO2. After 5 d, 100 μL/well of Cell Titer-Glo reagent (Promega, Madison, Wis.) was added, and luminescence was measured using a Molecular Devices SpectraMax M5 plate reader. GraphPad Prism software was used for data analysis.

For assay [4], the system named is WSU-DLCL2 cells. The assay is described as follows: In vitro cytotoxicity, Cell Titer-Glo, 5 d. Particulars: Homo sapiens, WSUDLCL2, 120 h; 5 d incubation; read-out: IC50 against WSU-DLCL2 cells. As to the method: as §3
A general note: ATP-based viability assays read luminescence as a measure of living cells.

As for `COc1cc2cc(c1Cl)N(C)C(=O)C[C@H](OC(=O)[C@H](C)N(C)C(C)=O)[C@]1(C)O[C@H]1[C@H](C)[C@@H]1C[C@@](O)(NC(=O)O1)[C@H](OC)/C=C/C=C(\C)C2` [free maytansine, maytansine], the “loss of efficacy in MDR1+ Ramos cells” value in assay [1] is listed as around 10 fold. Moreover, the “potency in MDR1+ WSU-DLCL2 cells on cotreatment with cyclosporin (MDR1 inhibitor)” value in assay [2] (cyclosporin cotreatment) is recorded as “restored the original potency”. In addition, the “loss of efficacy in MDR1+ WSU-DLCL2 cells” value in assay [2] (versus wild-type cells) is reported as around 10 fold. In addition, the IC50 came out at 0.04 nM in assay [3] and 0.086 nM in assay [4].
